From the supplement of paper PMC10307832

What was measured:
Assay in all cases: relative viability (nuclei count vs DMSO), 5 days (fraction); higher = more cells survive
A549 = test system: A549
Method in brief: (§1)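 Relative viability equals treated-well nuclei counts divided by vehicle-well nuclei counts. Counts came from 4× images of lung cancer cell lines grown in 1536-well plates for 5 days after pin-tool dosing on the day after seeding. Dosing used one drug alone or a fixed anchor-drug dose plus five library-drug doses (not always all listed) in √10 steps, and values are medians of duplicate plates.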

Calu-6 = test system: Calu-6
Method in brief: as §1

EBC-1 = test system: EBC-1
Method in brief: as §1

EKVX = test system: EKVX
Method in brief: as §1

HCC-15 = test system: HCC-15
Method in brief: as §1

HCC-44 = test system: HCC-44
Method in brief: as §1

IA-LM = test system: IA-LM
Method in brief: as §1

NCI-H1299 = test system: NCI-H1299
Method in brief: as §1

NCI-H1395 = test system: NCI-H1395
Method in brief: as §1

NCI-H1703 = test system: NCI-H1703
Method in brief: as §1

NCI-H1755 = test system: NCI-H1755
Method in brief: as §1

UMC-11 = test system: UMC-11
Method in brief: as §1

With `Cc1sc2c(c1C)C(c1ccc(Cl)cc1)=N[C@@H](CC(=O)OC(C)(C)C)c1nnc(C)n1-2` [JQ1] + CS(=O)(=O)CCNCc1ccc(-c2ccc3ncnc(Nc4ccc(OCc5cccc(F)c5)c(Cl)c4)c3c2)o1 [Lapatinib] (partner 2 µM) as the molecule, how does the relative viability (A549; first compound 0.04 µM) read?
Its relative viability is 0.923.

What about the relative viability (A549; first compound 0.1265 µM) of the same molecule?
The relative viability was 0.902.

What about the relative viability (A549; first compound 0.4 µM) of the same molecule?
Its relative viability is 1.04.

And the relative viability (A549; first compound 1.265 µM)?
Its relative viability is 0.553.

What about the relative viability (A549; first compound 4 µM) of the same molecule?
The relative viability was 0.358.

What about the relative viability (Calu-6; first compound 0.04 µM) of the same molecule?
Its relative viability is 1.11.

And the relative viability (Calu-6; first compound 0.1265 µM)?
The relative viability was 0.9.

What about the relative viability (Calu-6; first compound 0.4 µM) of the same molecule?
Its relative viability is 0.999.

What about the relative viability (Calu-6; first compound 1.265 µM) of the same molecule?
Its relative viability is 0.598.

What about the relative viability (Calu-6; first compound 4 µM) of the same molecule?
Its relative viability is 0.564.

What about the relative viability (EBC-1; first compound 0.04 µM) of the same molecule?
The relative viability was 0.205.

And the relative viability (EBC-1; first compound 0.1265 µM)?
Its relative viability is 0.208.

And the relative viability (EBC-1; first compound 0.4 µM)?
The relative viability was 0.172.

What about the relative viability (EBC-1; first compound 1.265 µM) of the same molecule?
The relative viability was 0.152.

What about the relative viability (EBC-1; first compound 4 µM) of the same molecule?
Its relative viability is 0.148.

What about the relative viability (EKVX; first compound 0.04 µM) of the same molecule?
The relative viability was 0.256.

And the relative viability (EKVX; first compound 0.1265 µM)?
Its relative viability is 0.269.

And the relative viability (EKVX; first compound 0.4 µM)?
Its relative viability is 0.244.

And the relative viability (EKVX; first compound 1.265 µM)?
The relative viability was 0.226.

And the relative viability (EKVX; first compound 4 µM)?
Its relative viability is 0.141.

And the relative viability (HCC-15; first compound 0.04 µM)?
Its relative viability is 0.778.

And the relative viability (HCC-15; first compound 0.4 µM)?
Its relative viability is 0.85.

And the relative viability (HCC-15; first compound 1.265 µM)?
Its relative viability is 0.655.

What about the relative viability (HCC-15; first compound 4 µM) of the same molecule?
Its relative viability is 0.592.

What about the relative viability (HCC-44; first compound 0.04 µM) of the same molecule?
Its relative viability is 1.07.

And the relative viability (HCC-44; first compound 0.1265 µM)?
The relative viability was 0.849.

What about the relative viability (HCC-44; first compound 0.4 µM) of the same molecule?
Its relative viability is 0.795.

What about the relative viability (HCC-44; first compound 1.265 µM) of the same molecule?
Its relative viability is 0.488.

What about the relative viability (HCC-44; first compound 4 µM) of the same molecule?
The relative viability was 0.532.

What about the relative viability (IA-LM; first compound 0.04 µM) of the same molecule?
The relative viability was 0.63.

What about the relative viability (IA-LM; first compound 0.1265 µM) of the same molecule?
The relative viability was 0.32.

What about the relative viability (IA-LM; first compound 0.4 µM) of the same molecule?
Its relative viability is 0.123.

And the relative viability (IA-LM; first compound 1.265 µM)?
The relative viability was 0.0937.

What about the relative viability (IA-LM; first compound 4 µM) of the same molecule?
The relative viability was 0.116.

And the relative viability (NCI-H1299; first compound 0.04 µM)?
Its relative viability is 0.975.

What about the relative viability (NCI-H1299; first compound 0.1265 µM) of the same molecule?
The relative viability was 0.802.

What about the relative viability (NCI-H1299; first compound 0.4 µM) of the same molecule?
Its relative viability is 0.837.

And the relative viability (NCI-H1299; first compound 1.265 µM)?
The relative viability was 0.391.

What about the relative viability (NCI-H1299; first compound 4 µM) of the same molecule?
Its relative viability is 0.316.

What about the relative viability (NCI-H1395; first compound 0.04 µM) of the same molecule?
The relative viability was 0.931.

And the relative viability (NCI-H1395; first compound 0.1265 µM)?
Its relative viability is 0.733.

What about the relative viability (NCI-H1395; first compound 0.4 µM) of the same molecule?
Its relative viability is 0.935.

And the relative viability (NCI-H1395; first compound 1.265 µM)?
Its relative viability is 0.492.

What about the relative viability (NCI-H1395; first compound 4 µM) of the same molecule?
The relative viability was 0.487.

And the relative viability (NCI-H1703; first compound 0.04 µM)?
Its relative viability is 1.07.

And the relative viability (NCI-H1703; first compound 0.1265 µM)?
The relative viability was 0.764.

And the relative viability (NCI-H1703; first compound 0.4 µM)?
The relative viability was 1.2.

What about the relative viability (NCI-H1703; first compound 1.265 µM) of the same molecule?
The relative viability was 0.47.

What about the relative viability (NCI-H1703; first compound 4 µM) of the same molecule?
Its relative viability is 0.432.

What about the relative viability (NCI-H1755; first compound 0.04 µM) of the same molecule?
The relative viability was 1.06.

And the relative viability (NCI-H1755; first compound 0.1265 µM)?
The relative viability was 0.735.

What about the relative viability (NCI-H1755; first compound 0.4 µM) of the same molecule?
Its relative viability is 1.05.

What about the relative viability (NCI-H1755; first compound 1.265 µM) of the same molecule?
The relative viability was 0.853.

What about the relative viability (NCI-H1755; first compound 4 µM) of the same molecule?
The relative viability was 0.607.

What about the relative viability (UMC-11; first compound 0.04 µM) of the same molecule?
The relative viability was 0.876.

And the relative viability (UMC-11; first compound 0.1265 µM)?
The relative viability was 0.757.

And the relative viability (UMC-11; first compound 0.4 µM)?
The relative viability was 0.419.

And the relative viability (UMC-11; first compound 1.265 µM)?
Its relative viability is 0.255.

And the relative viability (UMC-11; first compound 4 µM)?
Its relative viability is 0.271.

Which results are given for `COc1cc2nccc(Oc3ccc(NC(=O)Nc4cc(C)on4)c(Cl)c3)c2cc1OC` [Tivozanib] + CC1(C)CCC(c2ccc(Cl)cc2)=C(CN2CCN(c3ccc(C(=O)NS(=O)(=O)c4ccc(N[C@H](CCN5CCOCC5)CSc5ccccc5)c(S(=O)(=O)C(F)(F)F)c4)cc3)CC2)C1 [Navitoclax] (partner 0.5 µM)?
relative viability (A549; first compound 0.005 µM): 1.22; relative viability (A549; first compound 0.01581 µM): 1.32; relative viability (A549; first compound 0.05 µM): 1.14; relative viability (A549; first compound 0.1581 µM): 1.23; relative viability (A549; first compound 0.5 µM): 1.19; relative viability (Calu-6; first compound 0.005 µM): 0.739; relative viability (Calu-6; first compound 0.01581 µM): 0.896; relative viability (Calu-6; first compound 0.05 µM): 0.798; relative viability (Calu-6; first compound 0.1581 µM): 0.874; relative viability (Calu-6; first compound 0.5 µM): 0.74; relative viability (EBC-1; first compound 0.005 µM): 0.359; relative viability (EBC-1; first compound 0.01581 µM): 0.437; relative viability (EBC-1; first compound 0.05 µM): 0.528; relative viability (EBC-1; first compound 0.1581 µM): 0.436; relative viability (EBC-1; first compound 0.5 µM): 0.485; relative viability (EKVX; first compound 0.005 µM): 0.869; relative viability (EKVX; first compound 0.01581 µM): 0.772; relative viability (EKVX; first compound 0.05 µM): 0.982; relative viability (EKVX; first compound 0.1581 µM): 0.793; relative viability (EKVX; first compound 0.5 µM): 0.922; relative viability (HCC-15; first compound 0.005 µM): 0.719; relative viability (HCC-15; first compound 0.01581 µM): 0.676; relative viability (HCC-15; first compound 0.05 µM): 0.67; relative viability (HCC-15; first compound 0.1581 µM): 0.742; relative viability (HCC-15; first compound 0.5 µM): 0.728; relative viability (HCC-44; first compound 0.005 µM): 1.01; relative viability (HCC-44; first compound 0.01581 µM): 0.986; relative viability (HCC-44; first compound 0.05 µM): 1.01; relative viability (HCC-44; first compound 0.1581 µM): 0.962; relative viability (HCC-44; first compound 0.5 µM): 0.944; relative viability (IA-LM; first compound 0.005 µM): 0.728; relative viability (IA-LM; first compound 0.01581 µM): 0.899; relative viability (IA-LM; first compound 0.05 µM): 0.737; relative viability (IA-LM; first compound 0.1581 µM): 0.574; relative viability (IA-LM; first compound 0.5 µM): 0.582; relative viability (NCI-H1299; first compound 0.005 µM): 1.03; relative viability (NCI-H1299; first compound 0.01581 µM): 1.07; relative viability (NCI-H1299; first compound 0.05 µM): 1.05; relative viability (NCI-H1299; first compound 0.1581 µM): 1.05; relative viability (NCI-H1299; first compound 0.5 µM): 0.981; relative viability (NCI-H1395; first compound 0.005 µM): 1.14; relative viability (NCI-H1395; first compound 0.01581 µM): 1.08; relative viability (NCI-H1395; first compound 0.05 µM): 1.08; relative viability (NCI-H1395; first compound 0.1581 µM): 1.24; relative viability (NCI-H1395; first compound 0.5 µM): 0.945; relative viability (NCI-H1703; first compound 0.005 µM): 0.369; relative viability (NCI-H1703; first compound 0.01581 µM): 0.244; relative viability (NCI-H1703; first compound 0.05 µM): 0.219; relative viability (NCI-H1703; first compound 0.1581 µM): 0.251; relative viability (NCI-H1703; first compound 0.5 µM): 0.249; relative viability (NCI-H1755; first compound 0.005 µM): 0.953; relative viability (NCI-H1755; first compound 0.01581 µM): 0.949; relative viability (NCI-H1755; first compound 0.05 µM): 1.01; relative viability (NCI-H1755; first compound 0.1581 µM): 0.932; relative viability (NCI-H1755; first compound 0.5 µM): 0.916; relative viability (UMC-11; first compound 0.005 µM): 0.314; relative viability (UMC-11; first compound 0.01581 µM): 0.322; relative viability (UMC-11; first compound 0.05 µM): 0.306; relative viability (UMC-11; first compound 0.5 µM): 0.329
